Test results taken from ChEMBL document CHEMBL1144996 (J Med Chem, 2003).

Tests used:
[1] = target: Carbonic anhydrase 1 (Homo sapiens, UniProt P00915)
[2] = target: Carbonic anhydrase 2 (Homo sapiens, UniProt P00918)
[3] = target: Carbonic anhydrase 9 (Homo sapiens, UniProt Q16790)

Chain of Carbonic anhydrase 1 (P00915 whole entry): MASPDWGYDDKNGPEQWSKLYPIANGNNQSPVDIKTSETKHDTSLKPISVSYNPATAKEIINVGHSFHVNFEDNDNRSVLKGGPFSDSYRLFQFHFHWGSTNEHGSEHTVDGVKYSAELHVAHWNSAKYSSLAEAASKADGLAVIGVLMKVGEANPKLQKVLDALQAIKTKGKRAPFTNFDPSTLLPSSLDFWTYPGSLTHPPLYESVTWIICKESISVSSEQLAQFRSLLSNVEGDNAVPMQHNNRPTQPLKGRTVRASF

Structure (SMILES)	Ki [1]	Ki [2]	Ki [3]
NS(=O)(=O)Oc1ccc([N+](=O)[O-])cc1	40 nM	1.5 nM	36 nM
NS(=O)(=O)Oc1ccccc1 [PHENYLSULFAMATE]	2.1 nM	–	63 nM
COc1ccc(OS(N)(=O)=O)cc1	33 nM	1.6 nM	34 nM
NS(=O)(=O)Oc1c(Cl)cc(Cl)cc1Cl	454 nM	138 nM	37 nM
CC1(C)O[C@@H]2[C@H](O1)[C@H]1OC(C)(C)OC1O[C@@H]2COS(N)(=O)=O (some centres not stated)	315 nM	29 nM	32 nM
C[C@]12CC[C@@H]3c4ccc(O)cc4CC[C@H]3[C@@H]1CC[C@@H]2OS(N)(=O)=O	15 nM	13 nM	32 nM
Cc1ccc(OS(N)(=O)=O)cc1	3.8 nM	1.9 nM	59 nM
C[C@]12CC[C@@H]3c4ccc(OS(N)(=O)=O)cc4CC[C@H]3[C@@H]1CC[C@@H]2OS(N)(=O)=O	6 nM	5 nM	58 nM
NS(=O)(=O)Oc1ccc(Oc2ccccc2)cc1	115 nM	98 nM	51 nM
NS(=O)(=O)Oc1c(Cl)c(Cl)c(Cl)c(Cl)c1Cl [SULFAMIC ACID PENTACHLOROPHENYL ESTER]	432 nM	125 nM	39 nM
CC1(C)OCC(C2OC3OC(C)(C)OC3[C@H]2OS(N)(=O)=O)O1 (some centres not stated)	278 nM	15 nM	39 nM
CC(=O)Nc1ccc(OS(N)(=O)=O)cc1	37 nM	18 nM	45 nM
C[C@]12CCC(OS(N)(=O)=O)CC1=CCC1C2CC[C@]2(C)C(=O)CCC12 (some centres not stated)	31 nM	27 nM	44 nM
NS(=O)(=O)Oc1ccc(-c2ccccc2)cc1	113 nM	95 nM	50 nM
CC(C)(C)c1ccc(OS(N)(=O)=O)cc1	43 nM	2.9 nM	–
N#Cc1ccc(OS(N)(=O)=O)cc1	480 nM	149 nM	41 nM
NS(=O)(=O)Oc1ccc(I)cc1	9.5 nM	3.8 nM	23 nM
C[C@]12CC[C@@H]3c4ccc(OS(N)(=O)=O)cc4CC[C@H]3[C@@H]1CCC2=O [EMATE]	37 nM	–	–
NS(=O)(=O)Oc1ccc(Cl)cc1	4.6 nM	–	18 nM
NS(=O)(=O)Oc1ccc(Br)cc1	7.3 nM	–	19 nM
NS(=O)(=O)OCCOc1ccc(-n2ccnc2)cc1	28 nM	23 nM	26 nM
